Measurements reported in article PMC8670521, “Identification and characterization of an atypical Gαs-biased β2AR agonist that fails to evoke airway smooth muscle cell tachyphylaxis” (Proceedings of the National Academy of Sciences of the …, 2021).
Like-named read-outs stand apart in the source and are kept apart here.

Assays:
[1] = biological target: T1, human β2AR (β2-adrenergic receptor) (Homo sapiens, UniProt P07550); experiment: cAMP accumulation, competitive immunoassay; type: cell-based
T1 construct: gene ADRB2; full-length receptor cDNA stably expressed in CHW-1102 (CHW-β2) cells, ~2,000 fmol/mg
Text: cAMP accumulation, competitive immunoassay on human β2AR (β2-adrenergic receptor)

[2] = biological target: T2, β2AR tagged at its carboxyl terminus (PathHunter ECA) (Homo sapiens, UniProt P07550); experiment: β-arrestin2 recruitment, PathHunter enzyme complementation; type: cell-based; conditions: […] min, […] °C, CHO cells
T2 construct: gene ADRB2; C-terminal complementary β-galactosidase fragment tag; DiscoverX PathHunter CHO cells co-expressing β-arrestin2 fused to fragment-deficient β-galactosidase (read-out)

[3] = agonist, […] min, […] °C, IBMX […], whole CHW-β[…] cells

T1 sequence (P07550 whole entry): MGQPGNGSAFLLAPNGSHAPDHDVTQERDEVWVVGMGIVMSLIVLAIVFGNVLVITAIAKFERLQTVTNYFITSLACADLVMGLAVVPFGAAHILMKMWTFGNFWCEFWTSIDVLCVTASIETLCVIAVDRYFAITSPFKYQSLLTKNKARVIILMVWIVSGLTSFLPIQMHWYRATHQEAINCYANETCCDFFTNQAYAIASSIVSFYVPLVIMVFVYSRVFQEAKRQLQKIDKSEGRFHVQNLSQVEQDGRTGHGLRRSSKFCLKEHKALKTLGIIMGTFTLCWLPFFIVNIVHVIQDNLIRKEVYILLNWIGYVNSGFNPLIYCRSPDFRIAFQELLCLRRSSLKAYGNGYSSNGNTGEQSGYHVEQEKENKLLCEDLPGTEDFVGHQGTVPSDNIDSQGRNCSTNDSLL
T2 sequence (P07550 whole entry, the tested form may be a part): as the sequence (P07550 whole entry) above

CC(C)CC1=N[C@@H](CCCCN2C[C@H](Cc3ccc(O)cc3)N(CCCCC3CCCCC3)C2=O)CN1 [C4-S]
EC50 [1, 3]: 3.52 ± 0.52 µM

CCOc1ccc(CC2=N[C@@H](CCCCN3C[C@H](Cc4ccc(O)cc4)N(CCCCC4CCCCC4)C3=O)CN2)cc1 [C3-S]
EC50 [1, 3]: 4.31 ± 1.69 µM

COc1ccc(CC2=N[C@@H](CCCCN3C[C@H](Cc4ccc(O)cc4)N(CCCCC4CCCCC4)C3=O)CN2)cc1OC [C2-S]
EC50 [1, 3]: 6.67 ± 2.01 µM

COc1ccc(CC2=N[C@@H](CCCCN3C[C@H](Cc4ccc(O)cc4)N(CCCCC4CCCCC4)C3=O)CN2)cc1 [C1-S]
EC50 [1]: 4.23 ± 1 µM | β-arrestin2 recruitment, PathHunter enzyme complementation [2]: lack of a response to C1-S in the β-arrestin ECA
